For test [1], the system named is 60 DUBs in HEK293AD lysate. Put plainly: In situ DUB profiling: competitive ABPP with Bio-Ub-PA/Bio-Ub-VME and quantitative MS. The format is binding, human. To be noted: in vitro and activity-based proteomic profiling. As for the experimental part: (§1) DUB profiling was performed using conditions similar to those in Lawson et al[63]. HEK 293AD cells were lysed using target engagement lysis buffer (50 mM Tris pH 8.0, 150 mM NaCl, 5 mM MgCl2, 0.5 mM EDTA, 0.5% NP-40, 10% glycerol, 1 mM TCEP, protease and phosphatase inhibitors), and the lysate was cleared by centrifugation. Samples were diluted to 2 mg/mL, and 1 mL lysate was incubated with the indicated concentration of XL177A for 5 hours at RT. Excess inhibitor was removed using a 30 K Amicon spin filter, then the resulting lysate was incubated with 1 μM each of Biotin-Ub-PA and Biotin-Ub-VME for 90 minutes at RT. SDS was added to a final concentration of 1.2%, and samples were heated to 80 °C for 5 minutes. After cooling to RT, 1X PBS was added to dilute the final SDS concentration to 0.2%. 100 μL streptavidin agarose slurry was added to each sample, followed by incubation at RT for 3 hours. After streptavidin enrichment, samples were washed vigorously (2×0.2% SDS, 3x PBS, 3x ddH2O). […]
(§2) To remove rapigest, recovered supernatants were acidified with 10% TFA, incubated at 37 °C for 45 minutes, and centrifuged at 14,000 rpm for 15 minutes at 4 °C. […] Eluted peptides were then analyzed by nanoflow LC-MS/MS as described[64] with a NanoAcquity UPLC system (Waters, Milford, MA) interfaced to a QExactive HF mass spectrometer (Thermofisher Scientific, San Jose, CA). […]

Test [2] concerns the target T1, 60 DUBs in HEK293AD lysate (Homo sapiens, UniProt Q93009).
T1 construct: endogenous in cells; host or cells: HEK 293AD lysate
The description is as above. The format is binding. Conditions: HEK293 crude cell extract, 5 hours pre-incubation. The protocol:
as §1, §2

Test [3] relates to panel of 41 recombinant DUBs. Put plainly: In vitro DUB profiling (Ubiquigent, Ub-Rho), other DUBs of the panel. The format is biochemical. To be noted: 1 µM, 15-minute pre-treatment. The protocol: (§3) Compounds were screened using the Ubiquigent Drug Profiler SPT system (www.ubiquigent.com/drug-discovery-services/dubprofiler/). Each of 41 purified DUBs was incubated with compound for 15 minutes, then ubiquitin rhodamine 110 (Ub-Rho) was added and percent inhibition determined based on fluorescence relative to a DMSO control.

Test [4] concerns the target T2, USP7 (Homo sapiens, UniProt Q93009). In words: In vitro DUB profiling (Ubiquigent, Ub-Rho), USP7. To be noted: 1 µM, 15-minute pre-treatment. Format: biochemical. The protocol:
as §3

For test [5], the target named is T2, USP7. In words: Competitive ABPP with HA-Ub-VS in MCF7 crude cell extracts. Also on record: endogenous in cells; host or cells: MCF7. Conditions: read-out: IC50 of inhibition of HA-Ub-VS labeling. Format: binding. As for the experimental part: (§4) HA-Ub-VS experiments were performed as previously described in Lamberto et al[29]. Briefly, target engagement lysis buffer (50 mM Tris pH 8.0, 150 mM NaCl, 5 mM MgCl2, 0.5 mM EDTA, 0.5% NP-40, 10% glycerol, 1 mM TCEP, protease and phosphatase inhibitors) was added to cell pellets on ice. Lysate was cleared by centrifugation and diluted to 1.67 mg/mL. Where indicated, 30 μL lysate was then incubated with inhibitors or DMSO for the indicated timepoints. 1 μM HA-Ub-VS was then added to the lysate and incubated at RT for the indicated time points. Labeling reactions were quenched with 4x LDS sample buffer (Thermo Fisher B0007) supplemented with 10% BME, vortexed vigorously, and heated to 95 C for 5 minutes. Samples were resolved by SDS-PAGE and analyzed by Western blot with the indicated antibodies.

For another test, the target named is T3, USP7-F291N (Homo sapiens, UniProt Q93009, F291N).
T3 construct: made in house
T3 sequence (Q93009 whole entry F291N): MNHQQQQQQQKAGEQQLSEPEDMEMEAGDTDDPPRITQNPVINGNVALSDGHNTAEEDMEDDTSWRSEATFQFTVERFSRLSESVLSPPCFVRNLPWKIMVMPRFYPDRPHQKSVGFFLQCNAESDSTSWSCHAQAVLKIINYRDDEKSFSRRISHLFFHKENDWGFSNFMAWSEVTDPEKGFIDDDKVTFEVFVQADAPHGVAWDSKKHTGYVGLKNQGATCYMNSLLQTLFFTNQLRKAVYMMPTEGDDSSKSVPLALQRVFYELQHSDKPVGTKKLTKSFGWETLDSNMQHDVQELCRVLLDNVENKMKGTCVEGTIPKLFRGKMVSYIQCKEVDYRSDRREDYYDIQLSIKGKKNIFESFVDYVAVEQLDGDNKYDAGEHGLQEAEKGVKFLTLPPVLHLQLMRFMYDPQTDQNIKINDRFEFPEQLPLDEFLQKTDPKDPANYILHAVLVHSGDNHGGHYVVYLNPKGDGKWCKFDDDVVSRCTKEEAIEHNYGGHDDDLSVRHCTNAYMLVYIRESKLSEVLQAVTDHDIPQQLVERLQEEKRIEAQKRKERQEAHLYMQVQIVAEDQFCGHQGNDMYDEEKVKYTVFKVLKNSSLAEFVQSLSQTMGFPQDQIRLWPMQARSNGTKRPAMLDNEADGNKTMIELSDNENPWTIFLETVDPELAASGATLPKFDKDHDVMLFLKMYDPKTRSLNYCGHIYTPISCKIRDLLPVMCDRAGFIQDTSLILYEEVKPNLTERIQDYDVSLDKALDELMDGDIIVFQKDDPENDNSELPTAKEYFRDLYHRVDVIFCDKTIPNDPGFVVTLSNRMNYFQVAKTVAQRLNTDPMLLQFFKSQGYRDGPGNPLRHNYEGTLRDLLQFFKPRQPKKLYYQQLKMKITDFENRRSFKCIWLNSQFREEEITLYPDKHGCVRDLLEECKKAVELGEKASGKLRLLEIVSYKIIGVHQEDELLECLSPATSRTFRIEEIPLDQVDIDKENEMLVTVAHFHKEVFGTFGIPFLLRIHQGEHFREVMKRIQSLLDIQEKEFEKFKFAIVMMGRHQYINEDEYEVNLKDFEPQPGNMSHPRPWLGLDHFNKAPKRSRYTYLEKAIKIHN
Put plainly: Ub-AMC enzymatic assay, USP7-F291N mutant. The format is biochemical. To be noted: 6-hr pre-incubation.

In a further test the test system is MCF7 cells. In words: Cell cycle analysis by propidium iodide staining. The format is cell-based. Conditions: 1 μM, 24 hours. The protocol: For propidium iodide (PI) staining, treated cells (~1 million per condition) were washed with cold PBS, then fixed in 80% ethanol overnight at −20 °C. After fixing, cells were pelleted, washed with PBS, and reconstituted in 500 μL FxCycle PI / RNAse A staining solution (Thermo Fisher). Cells were stored overnight at 4 °C and analyzed using a BD Fortessa flow cytometer.

The target in test [6] is T2, USP7. In words: Live cell treatment and competitive ABPP with HA-Ub-VS. The format is cell-based. Also on record: endogenous in cells; host or cells: MCF7. Conditions: live cell treatment, 6 hr; read-out: IC50, USP7 inhibition in cyto. The protocol:
as §4

The test system of another test is TC32 cells. Put plainly: Cell viability (CellTiter-Glo) in TC32 cells expressing sgRNA (TP53-KO vs control). The format is cell-based. To be noted: 3 days. The protocol: Cells were plated in 384-well culture-treated plates and allowed to settle overnight. After drug treament and appropriate incubation time, cell viability was assessed using the CellTiter-Glo Luminescent Cell Viability Assay (Promega). Luminescence was read on a Fluostar Omega Reader (BMG Labtech).
(In ATP-based viability assays light output follows the ATP content of the culture.)

Structures are written as SMILES.

T2 sequence (Q93009 whole entry): as the sequence (Q93009 whole entry F291N) above, with N291F counted along it
T1 sequence (Q93009 whole entry): as the sequence (Q93009 whole entry F291N) above, with N291F counted along it

Broadly, the IC50 is the midpoint of a concentration-inhibition curve. With `CN1CCN(CCC(=O)Nc2ccc3c(=O)n(CC4(O)CCN(C(=O)[C@@H](CCCNC(=O)c5ccc6c(Cl)c7c(nc6c5)CCCC7)Cc5ccccc5)CC4)cnc3c2)CC1` [XL177A], the “selectivity for USP7 over closely related DUBs” value in [1] is more than 10 fold. Also, the “USP7 labeling by DUB ABPs” value in test [2] is recorded as “significantly blocked USP7 labeling”. In test [3], the “activity against any other DUBs” value was “did not exhibit significant activity”. For the same compound, the USP7 enzymatic activity result at USP7 [4] is listed as “completely inhibited”. Besides, the IC50 on USP7 [5] (30 min preincubation) came to 85 nM; at USP7 [5] (4 hr preincubation) it was 8 nM; against USP7-F291N, 629 nM; at USP7 [6], 39 nM. Further, in the test with MCF7 cells, the cell cycle effect entry is reported as “complete G1 arrest”. Besides, in the test on TC32 cells, the “effect of TP53 KO on growth suppression” value was “completely rescued TC32 growth except at high doses”.

Source of the values: paper PMC7093416, “Selective USP7 inhibition elicits cancer cell killing through a p53-dependent mechanism” (Scientific Reports, 2020).
